This is an account of results in ChEMBL document CHEMBL1201862, “PubChem BioAssay data set” (2004).

Active and inactive are the calls of the source.

Broadly, the EC50 is the concentration giving half of the maximal effect. The term IC50 denotes the concentration at which inhibition is half-maximal. By AC50 is commonly meant the midpoint of the concentration-response curve, whichever way the signal moves. As usually defined, the Ki is the dissociation constant of the complex between target and ligand, obtained from inhibition or displacement.

The nature of test [1]: NIH-3T3 fibroblast cytotoxicity, dose response, cytotoxicity control, cell-based, fluorescence, Alamar Blue, secondary assay (AID 2327).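 Further: NIH-3T3 mouse fibroblasts cultured with fluconazole at 8 µg/mL.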 The test is classed as functional. A general note: The colour change of resazurin is a common sign of viable cells or microbes.
A short description of test [2]: fluconazole-exposed Candida albicans growth modulators – fluorescence, retest, confirmation (AID 2467). Format: functional, cell-based.
The nature of test [3]: microbe, parasite or virus in culture. The test is classed as functional. As to conditions: Mycobacterium tuberculosis.
The next test has as its target T1, Bcl-2-related protein A1 (Mus musculus, UniProt Q07440).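 Further: confirmatory dose–response counterscreen on Bfl-1, used to check hits from a UBC13 polyubiquitin inhibitor campaign.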
T1 sequence (Q07440 whole entry): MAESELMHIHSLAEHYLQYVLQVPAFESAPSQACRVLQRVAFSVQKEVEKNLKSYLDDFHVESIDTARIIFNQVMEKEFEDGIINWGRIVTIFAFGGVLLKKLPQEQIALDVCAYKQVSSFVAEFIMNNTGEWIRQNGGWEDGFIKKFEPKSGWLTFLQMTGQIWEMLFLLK
The test is classed as functional.

Test [4] has as its target T2, Ubiquitin-conjugating enzyme E2 N (Homo sapiens, UniProt P61088).
T2 sequence (P61088 whole entry): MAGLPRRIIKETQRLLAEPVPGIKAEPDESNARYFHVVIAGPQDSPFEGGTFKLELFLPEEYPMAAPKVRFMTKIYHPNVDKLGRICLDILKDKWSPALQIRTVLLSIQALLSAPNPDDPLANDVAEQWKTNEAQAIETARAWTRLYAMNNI
Format: functional.

Test [5] addresses T2, Ubiquitin-conjugating enzyme E2 N. Format: functional. This is another data set of the same source.
For test [6], the target named is T3, Insulin-degrading enzyme (Homo sapiens, UniProt P14735).
T3 sequence (P14735 whole entry): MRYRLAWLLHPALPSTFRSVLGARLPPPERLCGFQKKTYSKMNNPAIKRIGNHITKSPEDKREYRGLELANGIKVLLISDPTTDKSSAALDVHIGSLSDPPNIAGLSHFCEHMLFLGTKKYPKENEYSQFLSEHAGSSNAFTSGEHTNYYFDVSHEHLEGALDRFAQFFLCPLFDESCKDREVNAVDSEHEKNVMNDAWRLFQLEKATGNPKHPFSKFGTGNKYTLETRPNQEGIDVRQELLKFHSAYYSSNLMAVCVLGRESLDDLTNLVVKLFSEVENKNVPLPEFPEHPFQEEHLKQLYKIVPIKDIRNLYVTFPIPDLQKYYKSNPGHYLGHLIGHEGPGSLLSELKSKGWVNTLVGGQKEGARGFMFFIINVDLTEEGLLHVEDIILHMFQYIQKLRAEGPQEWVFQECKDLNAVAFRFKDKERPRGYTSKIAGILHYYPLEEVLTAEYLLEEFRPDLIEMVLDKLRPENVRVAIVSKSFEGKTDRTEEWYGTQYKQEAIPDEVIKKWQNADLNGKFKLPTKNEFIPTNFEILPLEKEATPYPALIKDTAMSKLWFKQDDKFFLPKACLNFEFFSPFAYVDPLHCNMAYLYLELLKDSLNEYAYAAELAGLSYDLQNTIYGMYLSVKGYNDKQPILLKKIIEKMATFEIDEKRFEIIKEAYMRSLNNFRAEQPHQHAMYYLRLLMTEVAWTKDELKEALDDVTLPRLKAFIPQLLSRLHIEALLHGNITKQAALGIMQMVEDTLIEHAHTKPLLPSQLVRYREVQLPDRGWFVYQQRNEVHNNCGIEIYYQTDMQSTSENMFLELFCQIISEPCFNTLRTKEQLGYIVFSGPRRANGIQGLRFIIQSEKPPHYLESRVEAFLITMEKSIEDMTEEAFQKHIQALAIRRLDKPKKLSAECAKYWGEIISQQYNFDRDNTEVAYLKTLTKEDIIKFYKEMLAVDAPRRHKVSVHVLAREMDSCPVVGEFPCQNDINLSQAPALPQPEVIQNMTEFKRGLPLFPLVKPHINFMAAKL
Nature of the test: recombinant IDE activation, cell-free – biochemical, fluorescence polarization, counter-screen for IDE activator project, dose response (AID 588681). A general note: In fluorescence polarisation assays a small probe gives low polarisation when free and higher when bound to something large.

The target of test [7] is T4, Apoptotic protease-activating factor 1 (Homo sapiens, UniProt O14727).
T4 sequence (O14727 whole entry): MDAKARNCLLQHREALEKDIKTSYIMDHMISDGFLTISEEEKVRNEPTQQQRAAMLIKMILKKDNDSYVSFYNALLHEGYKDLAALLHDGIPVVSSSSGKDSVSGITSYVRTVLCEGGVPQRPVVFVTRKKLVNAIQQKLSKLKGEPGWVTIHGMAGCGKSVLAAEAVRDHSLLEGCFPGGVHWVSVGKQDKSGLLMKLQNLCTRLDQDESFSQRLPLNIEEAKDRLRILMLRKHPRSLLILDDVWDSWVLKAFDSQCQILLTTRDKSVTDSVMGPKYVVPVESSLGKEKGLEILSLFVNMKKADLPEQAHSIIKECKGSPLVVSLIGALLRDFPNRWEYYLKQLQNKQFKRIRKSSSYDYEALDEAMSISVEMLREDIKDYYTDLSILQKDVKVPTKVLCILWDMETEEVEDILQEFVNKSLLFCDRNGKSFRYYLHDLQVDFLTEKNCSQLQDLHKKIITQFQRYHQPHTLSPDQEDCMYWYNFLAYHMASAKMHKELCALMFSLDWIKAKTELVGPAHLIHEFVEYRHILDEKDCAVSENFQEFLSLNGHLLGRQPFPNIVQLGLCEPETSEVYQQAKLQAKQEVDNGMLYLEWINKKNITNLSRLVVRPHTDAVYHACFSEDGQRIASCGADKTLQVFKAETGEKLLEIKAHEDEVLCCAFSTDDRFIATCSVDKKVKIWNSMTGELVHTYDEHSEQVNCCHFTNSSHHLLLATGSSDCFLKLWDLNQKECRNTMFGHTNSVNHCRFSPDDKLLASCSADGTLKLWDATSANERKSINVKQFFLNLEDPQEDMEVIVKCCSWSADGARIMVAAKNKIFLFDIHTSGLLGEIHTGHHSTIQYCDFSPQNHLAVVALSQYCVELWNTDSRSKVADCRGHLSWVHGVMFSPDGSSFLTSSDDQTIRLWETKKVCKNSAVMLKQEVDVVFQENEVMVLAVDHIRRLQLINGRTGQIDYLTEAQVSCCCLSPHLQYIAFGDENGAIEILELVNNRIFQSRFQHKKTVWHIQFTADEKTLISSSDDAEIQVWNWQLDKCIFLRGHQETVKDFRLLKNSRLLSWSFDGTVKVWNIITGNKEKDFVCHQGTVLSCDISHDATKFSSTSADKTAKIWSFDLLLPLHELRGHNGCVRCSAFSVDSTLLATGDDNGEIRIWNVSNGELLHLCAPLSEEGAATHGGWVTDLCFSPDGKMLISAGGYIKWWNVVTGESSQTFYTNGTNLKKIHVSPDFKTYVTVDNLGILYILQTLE
The test is classed as functional.

For test [8], the target named is T3, Insulin-degrading enzyme. Nature of the test: cellular IDE activation of Abeta substrate cleavage – fluorescence polarization, HEK cells, dose response (AID 588439). The test is classed as functional, cell-based.
The test system of test [9] is HEK293. In words: membrane integrity loss in HEK cells – cell-based, fluorescence, cytotoxicity control for IDE activator project, dose response (AID 588440).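 Further: cytotoxicity by LDH release measuring loss of membrane integrity.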 The test is classed as functional. As to conditions: Homo sapiens.
Test [10] relates to HEK293. In words: optical interference in Abeta FP readout, dose response, artefact control for IDE activator project, biochemical, fluorescence polarization (AID 588442). The test is classed as functional, cell-based. As to conditions: Homo sapiens.
Test [11] concerns the target Ras and Rab interactor 1/Tyrosine-protein kinase ABL1 (Homo sapiens, UniProt P00519+Q13671). Format: functional.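 Further: biochemical TR-FRET dose-response test measuring inhibition of binding between Rin1 and Abl proteins.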
For test [12], the target named is T5, RNA-binding protein pos-1 (Caenorhabditis elegans, UniProt G5EF15).
T5 sequence (G5EF15 whole entry): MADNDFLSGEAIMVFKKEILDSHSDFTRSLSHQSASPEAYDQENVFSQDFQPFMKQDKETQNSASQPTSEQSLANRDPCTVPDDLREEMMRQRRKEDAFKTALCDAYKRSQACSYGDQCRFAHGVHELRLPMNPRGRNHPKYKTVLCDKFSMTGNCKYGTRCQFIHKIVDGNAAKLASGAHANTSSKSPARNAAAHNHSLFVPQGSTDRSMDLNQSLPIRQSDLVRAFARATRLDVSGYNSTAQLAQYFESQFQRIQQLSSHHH
Nature of the test: disruptors of C. elegans POS-1 RNA interaction – biochemical, fluorescence polarization, dose response (AID 1964).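 Further: purified POS-1 fused to maltose binding protein made in E. coli; potency of compounds blocking POS-1 binding to fluorescent RNA.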

A short description of test [13]: Luminescence Cell-Based Dose Confirmation HTS to Identify Activators of 5'UTR Stem-Loop Driven Alpha-Synuclein mRNA Translation in H4 Neuroglioblastoma Cells. [Related pubchem assays: 1829 (Project Summary), 1814 (Primary HTS)]. The test is classed as functional.
The nature of test [14]: Luminescence Cell-Based Dose Response HTS to Identify Activators of Luciferase Translation or Activity in H4 […] Cells. [Related pubchem assays: 1829 (Project Summary), 1814 (Primary HTS)]. Format: functional.
A further test deals with H4. In words: Luminescence Cell-Based Dose Response HTS to Identify Activators of 5'UTR Stem-Loop Driven Prion Protein mRNA Translation in H4 Neuroglioblastoma Cells. [Related pubchem assays: 1829 (Project Summary), 1814 (Primary HTS)]. The test is classed as functional. The following applies: Homo sapiens.
For test [15], the target named is T6, Zinc finger protein mex-5 (Caenorhabditis elegans, UniProt Q9XUB2).
T6 sequence (Q9XUB2 whole entry): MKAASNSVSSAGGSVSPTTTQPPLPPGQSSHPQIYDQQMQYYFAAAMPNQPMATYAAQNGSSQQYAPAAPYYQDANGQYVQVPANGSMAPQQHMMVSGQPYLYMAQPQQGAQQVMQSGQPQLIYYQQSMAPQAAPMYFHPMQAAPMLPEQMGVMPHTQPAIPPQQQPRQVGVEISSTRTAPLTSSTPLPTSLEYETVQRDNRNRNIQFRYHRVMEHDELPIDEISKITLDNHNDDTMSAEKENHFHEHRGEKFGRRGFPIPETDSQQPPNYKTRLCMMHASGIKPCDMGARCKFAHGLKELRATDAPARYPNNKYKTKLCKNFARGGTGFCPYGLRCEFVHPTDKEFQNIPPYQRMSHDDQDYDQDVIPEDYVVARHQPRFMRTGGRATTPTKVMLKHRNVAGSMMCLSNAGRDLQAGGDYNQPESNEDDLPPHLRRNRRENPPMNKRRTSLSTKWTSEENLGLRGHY
Nature of the test: potency of MEX-5 RNA-binding blockers – biochemical, C. elegans, fluorescence polarization, dose response (AID 1960).

A further test relates to INS1. In words: INS-1E survival protection against cytokine death – cell-based, luminescence, retest, dose response (AID 449756).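 Further: cell death triggered by IL-1 beta plus TNF-alpha plus IFN-gamma mixture; protective hits raise ATP signal compared with cytokine alone wells.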 The test is classed as functional. The following applies: Rattus norvegicus.
Test [16] concerns the target T7, Neuropeptides B/W receptor type 1 (Homo sapiens, UniProt P48145).
T7 sequence (P48145 whole entry): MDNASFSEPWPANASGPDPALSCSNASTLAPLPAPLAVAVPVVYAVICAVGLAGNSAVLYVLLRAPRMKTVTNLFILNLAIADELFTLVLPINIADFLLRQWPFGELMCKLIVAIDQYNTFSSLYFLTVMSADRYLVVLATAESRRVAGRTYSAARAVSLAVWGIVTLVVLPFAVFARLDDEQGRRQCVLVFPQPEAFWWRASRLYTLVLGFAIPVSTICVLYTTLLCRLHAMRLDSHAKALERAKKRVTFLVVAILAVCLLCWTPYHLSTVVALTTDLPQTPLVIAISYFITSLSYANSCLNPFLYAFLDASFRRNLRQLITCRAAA
Nature of the test: human NPBW1 receptor blockade, IC50 – cell-based, fluorescence, dose response, set 5, late-stage follow-up (AID 588566). Format: functional.

Test [17] deals with Melanin-concentrating hormone receptor 1 (Homo sapiens, UniProt Q99705). In words: Late-stage fluorescence-based counterscreen for antagonists of the G-protein coupled receptor 7 (GPR7): cell-based dose response assay to identify antagonists of the melanin-concentrating hormone receptor 1 (MCHR1) Set 5. Format: functional. A general note: The purpose of a counterscreen is to sort out artefacts and off-target activity.

In a further test the target is Activin receptor type-1 (Homo sapiens, UniProt Q04771). In words: Navigating the Kinome. Panel member name: ACVR1. The test is classed as functional.
Sequence of Activin receptor type-1 (Q04771 whole entry): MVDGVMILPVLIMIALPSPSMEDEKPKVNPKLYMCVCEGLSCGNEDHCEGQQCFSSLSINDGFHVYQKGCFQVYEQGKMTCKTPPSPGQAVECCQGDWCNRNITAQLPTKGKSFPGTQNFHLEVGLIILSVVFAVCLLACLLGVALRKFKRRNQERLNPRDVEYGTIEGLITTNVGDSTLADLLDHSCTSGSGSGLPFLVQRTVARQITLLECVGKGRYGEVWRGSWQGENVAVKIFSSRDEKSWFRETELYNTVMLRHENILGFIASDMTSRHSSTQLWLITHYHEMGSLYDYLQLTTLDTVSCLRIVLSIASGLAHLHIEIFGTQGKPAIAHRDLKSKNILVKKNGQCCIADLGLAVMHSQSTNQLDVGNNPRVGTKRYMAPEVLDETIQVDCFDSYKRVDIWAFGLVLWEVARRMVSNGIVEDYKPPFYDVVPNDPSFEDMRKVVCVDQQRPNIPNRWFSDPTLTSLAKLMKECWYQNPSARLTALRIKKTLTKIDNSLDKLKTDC

Sequence of Melanin-concentrating hormone receptor 1 (Q99705 whole entry): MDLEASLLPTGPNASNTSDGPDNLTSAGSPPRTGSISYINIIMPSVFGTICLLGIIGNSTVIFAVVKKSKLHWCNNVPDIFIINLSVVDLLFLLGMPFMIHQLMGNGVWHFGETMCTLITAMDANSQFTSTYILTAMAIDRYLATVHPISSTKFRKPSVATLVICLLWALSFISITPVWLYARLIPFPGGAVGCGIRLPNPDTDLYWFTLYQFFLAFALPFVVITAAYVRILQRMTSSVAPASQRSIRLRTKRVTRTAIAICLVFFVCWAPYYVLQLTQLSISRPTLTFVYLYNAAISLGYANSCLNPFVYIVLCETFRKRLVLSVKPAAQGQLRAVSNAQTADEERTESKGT
Sequence of Ras and Rab interactor 1/Tyrosine-protein kinase ABL1 (P00519 whole entry): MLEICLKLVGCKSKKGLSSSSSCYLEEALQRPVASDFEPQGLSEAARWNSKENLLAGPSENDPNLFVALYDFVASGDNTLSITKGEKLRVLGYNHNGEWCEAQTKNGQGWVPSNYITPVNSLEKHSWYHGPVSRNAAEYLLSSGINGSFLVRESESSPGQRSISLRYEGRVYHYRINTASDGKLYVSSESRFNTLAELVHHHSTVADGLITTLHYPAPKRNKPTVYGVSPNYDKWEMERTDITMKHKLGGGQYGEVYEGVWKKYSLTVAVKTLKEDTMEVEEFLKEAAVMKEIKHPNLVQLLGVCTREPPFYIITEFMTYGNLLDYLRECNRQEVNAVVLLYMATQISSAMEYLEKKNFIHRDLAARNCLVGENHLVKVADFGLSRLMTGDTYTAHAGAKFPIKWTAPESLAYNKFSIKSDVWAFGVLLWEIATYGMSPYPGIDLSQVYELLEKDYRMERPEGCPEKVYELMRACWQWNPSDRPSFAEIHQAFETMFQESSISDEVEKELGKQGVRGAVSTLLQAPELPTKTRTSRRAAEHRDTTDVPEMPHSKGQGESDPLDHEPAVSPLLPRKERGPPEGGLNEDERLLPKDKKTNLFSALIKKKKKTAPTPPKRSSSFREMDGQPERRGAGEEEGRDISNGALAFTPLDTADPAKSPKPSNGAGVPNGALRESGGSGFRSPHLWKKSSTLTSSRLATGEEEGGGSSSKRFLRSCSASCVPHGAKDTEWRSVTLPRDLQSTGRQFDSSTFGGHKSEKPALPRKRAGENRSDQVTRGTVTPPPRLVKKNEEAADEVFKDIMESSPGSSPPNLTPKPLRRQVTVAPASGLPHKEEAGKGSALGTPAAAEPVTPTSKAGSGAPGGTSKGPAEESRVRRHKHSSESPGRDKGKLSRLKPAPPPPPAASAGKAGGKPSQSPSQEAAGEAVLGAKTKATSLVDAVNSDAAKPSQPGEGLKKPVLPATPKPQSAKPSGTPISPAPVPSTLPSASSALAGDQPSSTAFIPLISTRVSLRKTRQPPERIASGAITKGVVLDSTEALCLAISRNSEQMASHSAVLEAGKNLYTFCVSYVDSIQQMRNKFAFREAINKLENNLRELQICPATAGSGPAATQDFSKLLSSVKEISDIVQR
Sequence of Ras and Rab interactor 1/Tyrosine-protein kinase ABL1 (Q13671 whole entry): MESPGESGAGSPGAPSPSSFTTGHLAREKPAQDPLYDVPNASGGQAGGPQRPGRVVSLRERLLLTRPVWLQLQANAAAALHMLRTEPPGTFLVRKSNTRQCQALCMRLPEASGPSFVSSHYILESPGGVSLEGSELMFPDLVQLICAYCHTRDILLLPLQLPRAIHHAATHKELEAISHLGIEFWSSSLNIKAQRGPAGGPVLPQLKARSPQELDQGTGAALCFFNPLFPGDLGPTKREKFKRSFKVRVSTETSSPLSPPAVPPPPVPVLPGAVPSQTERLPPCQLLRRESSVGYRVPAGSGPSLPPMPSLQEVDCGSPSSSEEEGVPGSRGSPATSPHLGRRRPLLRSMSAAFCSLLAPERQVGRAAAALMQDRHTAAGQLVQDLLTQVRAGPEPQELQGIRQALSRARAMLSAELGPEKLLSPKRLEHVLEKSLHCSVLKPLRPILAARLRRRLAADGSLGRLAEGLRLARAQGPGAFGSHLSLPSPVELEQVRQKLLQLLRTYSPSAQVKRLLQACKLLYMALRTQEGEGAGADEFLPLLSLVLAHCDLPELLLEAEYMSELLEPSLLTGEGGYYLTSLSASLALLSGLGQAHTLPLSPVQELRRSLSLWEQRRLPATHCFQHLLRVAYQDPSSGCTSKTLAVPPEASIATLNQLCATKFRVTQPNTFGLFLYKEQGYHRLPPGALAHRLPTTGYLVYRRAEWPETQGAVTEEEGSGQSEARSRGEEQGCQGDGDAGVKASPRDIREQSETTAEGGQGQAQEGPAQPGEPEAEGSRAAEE

`NC1=NC[C@H](CC2CCCCC2)N1CCc1cc(C(F)(F)F)cc(C(F)(F)F)c1`: the EC50 in test [1] was 65.2 µM (active); in test [2] it was 7.64 µM (active); at Insulin-degrading enzyme [6], > 54.7 µM (inactive); on Insulin-degrading enzyme [8], 9.93 µM (active); in the test on HEK293 [10] it was > 54.7 µM (inactive). In addition, the CC50 in test [3] is 26 µM (active). The IC50 on Bcl-2-related protein A1 is > 20 µM (inactive); in test [4], 14.6 µM (active); in [5] it was 17.2 µM (active); in test [7] it was 74.7 µM (active); with HEK293 [9] it was 10.9 µM (inactive).

For the compound `CC1(C)Cc2nc3sc4c(=O)[nH]cnc4c3cc2CS1`, the 50% inhibitory concentration (IC50) in [11] is > 302 nM (active).

Regarding `Cc1ccc(NNC2=C3N=NN=C3C=CC2=O)cc1`, the EC50 in test [12] is 22.4 µM (active); in [13] it was 399 nM (active); in test [14], 50.3 µM (active); with H4 it was > 120 µM (not active); in [15] it was 2.99 µM (active); on Insulin-degrading enzyme [6], 1.32 µM (active). Further, the EC50 was 0.891 µM (active) on Insulin-degrading enzyme [8] and 0.659 µM (active) in the test with HEK293 [10]. The AC50 with INS1 is 5.05 µM (active). For the same compound, the IC50 in the test on HEK293 [9] was > 89.3 µM (inactive).

For `CCOC(=O)C(C#N)c1c(Cl)cnn(C2c3ccccc3-c3ccccc32)c1=O` (configuration not stated), the IC50 in test [16] is 2.9 µM (active); in [17], 7.86 µM (active).

`O=C(C1CCCCN1C1c2ccccc2CCc2ccccc21)N1CCN(c2ccc([N+](=O)[O-])cc2)CC1` (configuration not stated): the IC50 in [16] and in test [17] was > 20 µM (inactive) each time.

Consider `C=CCn1c(=O)c2cnc(Nc3ccc(N4CCN(C)CC4)cc3)nc2n1-c1cccc(C(C)(C)O)n1` [ADAVOSERTIB], for which, on Activin receptor type-1, the Ki is > 3.98 µM (inactive).
